Measured values published in PubChem BioAssay (NCI).
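The compound was tested at five concentrations on cells cultured in 96-well plates, with a 48-hour exposure period. Abbreviation: GI50, concentration required for 50% inhibition of growth. TGI marks complete inhibition of growth.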

How the values were obtained:
Assay in all cases: DTP human tumour cell line panel, 48 h
[1] = system: CCRF-CEM leukemia
[2] = system: SNB-75 CNS
[3] = system: A498 renal
[4] = system: EKVX NSCLC
[5] = system: LOX IMVI melanoma
[6] = system: MALME-3M melanoma
[7] = system: HT29 colon
[8] = system: MOLT-4 leukemia
[9] = system: UO-31 renal
[10] = system: DU-145 prostate

Compound	TGI [1]	TGI [2]	TGI [3]	TGI [4]	TGI [5]	TGI [6]	TGI [7]	TGI [8]	TGI [9]	TGI [10]	GI50 [1]	GI50 [2]	GI50 [4]	GI50 [6]	GI50 [8]	GI50 [9]	GI50 [5]	GI50 [7]	GI50 [10]	GI50 [3]
CN(C(=O)C1CC1)C1C2CN3CCC(O2)C13 (configuration not stated)	> 100 µM	> 100 µM	> 100 µM	> 100 µM	> 100 µM	> 100 µM	> 100 µM	> 100 µM	> 100 µM	–	–	–	–	–	–	–	–	–	–	–
COC(=O)NN=C1C(C)(C)C(=NNC(=O)OC)C1(C)C	> 72.3 µM	> 100 µM	> 100 µM	> 100 µM	> 50.9 µM	> 100 µM	> 53.6 µM	> 100 µM	> 100 µM	–	–	–	–	–	–	–	–	–	–	–
CCCCCC/C=C/CCCCCCCc1cccc(O)c1C(=O)O	> 100 µM	> 100 µM	–	> 100 µM	> 100 µM	> 100 µM	> 100 µM	> 100 µM	> 100 µM	–	–	–	–	–	–	–	–	–	–	–
CCC(C)c1cnc(CC(C)C)c(=O)[nH]1 (configuration not stated)	> 100 µM	> 100 µM	> 100 µM	> 100 µM	> 100 µM	–	> 100 µM	> 100 µM	> 100 µM	> 100 µM	–	–	–	–	–	–	–	–	–	–
CCC[CH2][Sn]1([CH2]CCC)[O]CC([CH2][Sn]([c]2ccccc2)([c]2ccccc2)[c]2ccccc2)[O]1 (configuration not stated)	20.8 µM	20.2 µM	–	26.3 µM	–	26.4 µM	–	28.5 µM	28.7 µM	–	2.26 µM	6.49 µM	13.4 µM	13.6 µM	3.22 µM	15.3 µM	–	–	–	–
CC(=O)Oc1cc(OC(C)=O)c2cc3c(cc2c1OC(C)=O)C(=O)C1(CCCC1)C3=O	–	30 µM	–	38 µM	33.5 µM	33.6 µM	30 µM	15 µM	29.8 µM	–	–	–	–	–	–	–	–	–	–	–
Cn1c(=O)c2[nH]cnc2n(CC(=O)O)c1=O	> 100 µM	> 100 µM	> 100 µM	> 100 µM	–	> 100 µM	> 100 µM	> 100 µM	> 100 µM	–	–	–	–	–	–	–	–	–	–	–
CN(Cc1ccccc1)c1nc(=[N+](C)C)ss1	> 100 µM	> 100 µM	> 100 µM	> 100 µM	> 100 µM	> 100 µM	> 100 µM	> 100 µM	> 100 µM	–	–	–	–	–	–	–	–	–	–	–
COc1ccc(Cn2c3c(c4c(O)cccc42)C(=O)c2ccccc2-3)cc1	> 100 µM	–	–	27.7 µM	47.8 µM	22.4 µM	38.5 µM	49.3 µM	67.7 µM	24.9 µM	73.6 µM	–	12 µM	8.71 µM	15.8 µM	13.8 µM	18.8 µM	16 µM	12.5 µM	–
C[C@@]1(CBr)C[C@@](C)(/C=C/Cl)[C@@H](Cl)C[C@H]1Cl	19.8 µM	30.5 µM	30.8 µM	33 µM	23.7 µM	30.4 µM	22.4 µM	19.4 µM	29.1 µM	–	–	–	–	–	–	–	–	–	–	–
CC(=O)[CH-]C(=O)c1ccccc1.CC(=O)[CH-]C(=O)c1ccccc1.CC12CC3(C)CC(C)(C1)CC([O-])(C2)C3.CC[O-].[Ti+4]	> 100 µM	29.4 µM	44.5 µM	–	31.1 µM	47 µM	> 100 µM	> 100 µM	57.5 µM	–	28.7 µM	14.3 µM	–	17.5 µM	28.9 µM	16 µM	13.2 µM	27 µM	–	21.3 µM
